From the Kinase Knowledgebase extract (Sharma et al. 2016)

Each molecule was assayed against PIK3CA (human) (UniProt P42336) (assay: Assessment of PIK3CA Kinase Activity).
Chain of PIK3CA (human) (P42336 whole entry, looked up): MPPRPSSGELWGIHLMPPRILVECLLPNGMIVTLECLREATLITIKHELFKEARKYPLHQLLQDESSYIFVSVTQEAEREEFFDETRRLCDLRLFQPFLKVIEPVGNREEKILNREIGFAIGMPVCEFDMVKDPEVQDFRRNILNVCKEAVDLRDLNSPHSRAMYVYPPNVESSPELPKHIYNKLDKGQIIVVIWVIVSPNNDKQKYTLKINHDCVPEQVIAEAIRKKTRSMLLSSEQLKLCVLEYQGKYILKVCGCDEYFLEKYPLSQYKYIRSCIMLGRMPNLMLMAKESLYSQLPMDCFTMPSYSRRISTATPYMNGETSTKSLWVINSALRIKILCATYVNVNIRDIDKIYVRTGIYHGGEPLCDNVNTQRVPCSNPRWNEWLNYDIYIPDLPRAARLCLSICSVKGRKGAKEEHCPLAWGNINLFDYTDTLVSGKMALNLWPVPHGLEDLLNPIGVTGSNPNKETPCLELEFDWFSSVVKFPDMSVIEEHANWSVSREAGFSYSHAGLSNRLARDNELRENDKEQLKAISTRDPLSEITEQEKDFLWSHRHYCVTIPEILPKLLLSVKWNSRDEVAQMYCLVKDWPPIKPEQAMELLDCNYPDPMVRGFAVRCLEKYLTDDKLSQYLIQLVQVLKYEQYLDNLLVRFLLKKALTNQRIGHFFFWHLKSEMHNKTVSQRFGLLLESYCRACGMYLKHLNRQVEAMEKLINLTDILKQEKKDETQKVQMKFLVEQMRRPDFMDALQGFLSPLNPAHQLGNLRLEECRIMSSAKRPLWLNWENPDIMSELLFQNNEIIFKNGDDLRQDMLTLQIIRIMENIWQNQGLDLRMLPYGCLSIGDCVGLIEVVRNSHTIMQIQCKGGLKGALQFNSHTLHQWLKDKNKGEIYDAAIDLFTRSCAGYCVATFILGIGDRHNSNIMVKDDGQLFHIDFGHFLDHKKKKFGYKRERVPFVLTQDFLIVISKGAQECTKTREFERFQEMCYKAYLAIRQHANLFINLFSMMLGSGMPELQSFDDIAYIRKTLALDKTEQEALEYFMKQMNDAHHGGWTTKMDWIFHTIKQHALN
`CN(C)C(=O)Cn1cc(-c2ccc3c(c2)OCCc2sc(-c4ncnn4CC(F)(F)F)nc2-3)cn1` gave an IC50 of under 1 µM.
For `Cc1nc(-c2nc3c(s2)CCOc2cc(C4CN(CC(=O)NC(C)C)C4)ccc2-3)n(C(C)C)n1`, the IC50 was under 1 µM.
`COc1ccc(-c2ccc3c(c2)-c2nc(-c4ncnn4C(C)C)sc2CCO3)cn1` showed an IC50 of under 1 µM.
For `Cc1nn(C(C)C)c(=O)n1-c1nc2c(s1)CCOc1cc(-c3cnn(CC(C)(C)O)c3)ccc1-2`, the IC50 was under 1 µM.
Molecule `CC(C)n1nc(N)nc1-c1nc2c(s1)CCOc1cc(-c3cnn(CC4(C)COC4)c3)ccc1-2` has an IC50 of under 1 µM.
`OCCCCc1ccc2c(n1)-c1sc(-c3ncnn3-c3ccc(F)cc3F)cc1CCO2` gave an IC50 of under 1 µM.
Molecule `O=C(c1nc2c(s1)CCOc1cc(-c3cn[nH]c3)ccc1-2)N1CCN(c2cnccn2)CC1` has an IC50 of under 1 µM.
Molecule `C[C@@H]1CN(c2ccc3c(n2)-c2sc(-c4ncnn4-c4ccc(F)cc4F)cc2CCO3)C[C@H](C)N1C` has an IC50 of under 1 µM.
In the case of `O=C(c1nc2c(s1)CCOc1cc(-c3cn[nH]c3)ccc1-2)N1CC[C@@H](C(F)(F)F)C1`, the IC50 is reported as under 1 µM.
Work on `CCN(CC)[C@@H]1CCN(C(=O)c2nc3c(s2)CCOc2cc(-c4cn[nH]c4)ccc2-3)C1` yielded an IC50 of under 1 µM.
`Fc1ccc(-n2ncnc2-c2cc3c(s2)-c2ccc(C4CNC4)cc2OCC3)c(F)c1` gave an IC50 of under 1 µM.
Molecule `O=C(c1nc2c(s1)CCOc1cc(-c3cn[nH]c3)ccc1-2)N1CCN(c2ccccn2)CC1` has an IC50 of under 1 µM.
`CC(C)n1ncnc1-c1nc2c(s1)CCOc1ccc(C(=O)NCCO)cc1-2` was tested, and the IC50 was under 1 µM.
`CC(O)C(=O)N1CC(n2cc(-c3ccc4c(c3)OCCc3sc(-c5ncnn5C(C)C)nc3-4)cn2)C1` (stereo unspecified) gave an IC50 of under 1 µM.
`O=C(c1nc2c(s1)CCOc1cc(-c3cn[nH]c3)ccc1-2)N1CCCC[C@@H]1CO` was tested, and the IC50 was under 1 µM.
Molecule `Cc1nc(-c2nc3c(s2)CCOc2cc(-c4cnn(C5CNC5)c4)ccc2-3)n(C(C)C)n1` has an IC50 of under 1 µM.
`CNC(=O)C(C)(C)N1CC(c2ccc3c(c2)OCCc2sc(-c4ncnn4C(C)C)nc2-3)C1` was tested, and the IC50 was under 1 µM.
With `CC(C)n1ncnc1-c1nc2c(s1)CCOc1cc(-c3ccc(=O)[nH]c3)ccc1-2` the IC50 was under 1 µM.
In the case of `CC(O)Cn1ncnc1-c1nc2c(s1)CCOc1cc(-c3cnn(CC(C)(C)O)c3)ccc1-2` (stereo unspecified), the IC50 is reported as under 1 µM.
With `CC(C)N(CCO)C(=O)c1nc2c(s1)CCOc1ccc(-c3cnn(C[C@@H](C)O)c3)cc1-2` the IC50 was under 1 µM.
In the case of `OCCn1cc(-c2ccc3c(c2)OCCc2sc(-c4ncnn4-c4ccc(F)cc4F)nc2-3)cn1`, the IC50 is reported as under 1 µM.
Molecule `CC1CCN(C(=O)c2nc3c(s2)CCOc2cc(-c4cn[nH]c4)ccc2-3)CC1` has an IC50 of under 1 µM.
`CC(C)(O)Cn1cc(-c2ccc3c(c2)OCCc2sc(-c4ncnn4Cc4ccncc4)nc2-3)cn1` gave an IC50 of under 1 µM.
Work on `OCCNc1ccc2c(n1)-c1sc(-c3ncnn3-c3ccc(F)cc3F)cc1CCO2` yielded an IC50 of under 1 µM.
`CC(C)n1ncnc1-c1nc2c(s1)CCOc1ccc(-c3cnn(S(=O)(=O)c4ccccc4)c3)cc1-2` was tested, and the IC50 was under 1 µM.
With `C[C@@H]1CN(c2ccc3c(n2)-c2sc(-c4ncnn4-c4ccc(F)cc4F)cc2CCO3)C[C@H](C)N1C(=O)C(F)(F)F` the IC50 was under 1 µM.
In the case of `CC(C)n1ncnc1-c1nc2c(s1)CCOc1cc(C3CN(S(=O)(=O)CCO)C3)ccc1-2`, the IC50 is reported as under 1 µM.
In the case of `C[C@H]1COCCN1C(=O)c1nc2c(s1)CCOc1cc(-c3cn[nH]c3)ccc1-2`, the IC50 is reported as under 1 µM.
`CN(C(=O)c1cc2c(s1)-c1ccc(C(=O)NCCS(C)(=O)=O)cc1OCC2)c1cc(C(=O)NCCO)ccc1Cl` showed an IC50 of under 1 µM.
In the case of `O=C(c1nc2c(s1)CCOc1cc(-c3cn[nH]c3)ccc1-2)N1CCN2CCCC[C@@H]2C1`, the IC50 is reported as under 1 µM.
`O=C(c1nc2c(s1)CCOc1cc(-c3cn[nH]c3)ccc1-2)N1CCC(C(=O)N2CCCC2)CC1` was tested, and the IC50 was under 1 µM.
For `COCCNc1ccc(-c2ccc3c(n2)-c2sc(-c4ncnn4-c4ccc(F)cc4F)cc2CCO3)cn1`, the IC50 was under 1 µM.
For `O=C(c1nc2c(s1)CCOc1cc(-c3cn[nH]c3)ccc1-2)N1CCCCC1`, the IC50 was under 1 µM.
Work on `CC(CO)n1ncnc1-c1nc2c(s1)CCOc1cc(-c3cnn(CC(C)(C)O)c3)ccc1-2` (stereo unspecified) yielded an IC50 of under 1 µM.
In the case of `OCCn1cc(-c2ccc3c(c2)OCCc2sc(-c4ncnn4Cc4ccncc4)nc2-3)cn1`, the IC50 is reported as under 1 µM.
For `CC(C)(O)Cn1cc(-c2ccc3c(c2)OCCc2sc(-c4ncnn4Cc4ccccn4)nc2-3)cn1`, the IC50 was under 1 µM.
